Laboratory results from patent US20070166547A1, “Use of a layer consisting of hydrophobic linear, or two-dimensional polycyclic aromatics as a barrier layer or an encapsulation and electric components constructed with a layer of this type and comprising organic polymers” (priority 2003, published 2007).

Tests used:
[1] = tested on: embyronic fibroblasts of mouse NIH-3T3; assay: Endocellular pHi of fibroblasts by microspectrofluorimetry (FDA, BCECF-AM); format: cell-based; details: 10 mkM in medium with serum
Procedure: The effect of the compounds according to the invention on the endocellular pH, embyronic fibroblasts of mouse NIH-3T3 supplied by the All-Russian Collection of Cellular Cultures of the Institute of Cytology of the Russian Academy of Sciences St. Petersburg was investigated. The cells were grown in the DMEM (Sigma) medium containing 2.2 g/l of sodium bicarbonate with addition of 80.0 mkg/ml of gentamicin and 10.0% embryonal veal serum at a temperature of 37° C. in an atmosphere containing 5.0% of carbon dioxide. For these experiments use was also made of a medium buffer with 5.0 mM of HEPES and 15.0 mM of sodium bicarbonate without serum or with addition of 5.0% serum. The cells were calculated with the help of a hemocytometer. A share of the dead cells was determined by colouring trypan blue.
The measurements of the endocellular pHi were carried out with the help of colorants FDA (Sigma) and BCECF-AM (Calbiochem) on a microspectrofluorimeter by a standard technique (Koshevoy Yu. V., Akatov V. S., Grobova M. E. Microspectrofluorimeter for measuring endocellular pH (micro pH)”. Devices and equipment for studies in the field of physical-and-chemical biology and biotechnology. Pushchino, 1990. P. 8-14).
The cells at a temperature of 37° C. were colored within 5 minutes with 5.0 mkM PDA that before the colouring was prepared from a 10.0 mM solution in acetone by dilution for 30 minutes in a phosphatic buffer to 0.1 mM or 2.0 mkM 1.0 mM solution BCECF-AM in DMSO.
The two-wave method of determining pHi was used based on the ratio intensities of fluorescence of the cells on two wavelengths (Akatov V. S. et all), “Endocellular pH and substrate dependence of proliferation of fibroblasts of Chinese hamster, Cytology, 1991, 33 (7), p. 86-94). The fluorescence was excited by light at λ=490 nm, the emission was recorded simultaneously with two photomultipliers on wavelengths λ=535 nm and λ=570 nm. The K-ratio of the fluorescence on two wavelengths was determined with a deduction of the background fluorescence of the medium near the investigated cells for 40-60 individual cells, which are then averaged taking into account the measurement error. A thermostatically controlled table was used that allowed measurements to be conducted at a temperature of 37° C. An account was taken for the photodynamic damage of the pigmented cells during-long-time continuous illumination by excited light. The readings were taken from a section of the preparation exposed to light for not more than 5 minutes.
The calibration curves for determining the absolute pHi values by magnitude K were constructed using the Thomas technique (Thomas J. A., Bushbaum R. N., Zimniak A. w Racker E. “Intracellular pH measurements in Ehrlich ascites tumor cells utilizing spectroscopic probe generated in situ”, Biochemistry, 1979, v. 18, p. 2210-2218), for which case the pigmented cells treated for 5-10 minutes with carboxyacidic nigericyn (Calbiochem) at a concentration of 5-10 mkg/ml was placed in a solution with a high content of potassium—130 mM KCl, 1.0 mM MgCl2, 20.0 mM of HEPES) and with pH values from 6.2 to 7.6. The K values were measured in the media with different pH assuming that pHi of the cells equals to the pH of the medium due to the action of nigericyn, which exchanges potassium ions for protons and at a high content of potassium in the medium counterbalances the pH of the medium and cells. Calibration curves were used based on the fluorescence of same medium with addition of 5.0 mkM of fluorescence or BCECF were used to the control the stability of the of the instrument readings.
The correctness of the technique was confirmed in the experiments on measurements of pH values of cells treated with protonofor monencine raising pH of the cells due to replacement of sodium ions by protons, and by determining the dependence of the change of pHi on the change of the pH of the medium. […]

[2] = tested on: embyronic fibroblasts of mouse NIH-3T3; details: 1-5 mkM; 15-20 minutes; cells of mice NSO and NIH-3T3; cited from earlier work

## CC[C@@]1([C@@H]2O[C@@H]([C@H]3O[C@@](O)(CO)[C@H](C)C[C@@H]3C)C[C@@H]2C)CC[C@H]([C@]2(C)CC[C@]3(C[C@H](O)[C@@H](C)[C@@H]([C@@H](C)[C@@H](OC)[C@H](C)C(=O)O)O3)O2)O1 [monensine, reference compound]
[1]
  rise of pHi: 0.12 pH unit
[2]
  increase of pHi: 0.2 unit
